Publication PMC2193169 (The Journal of Experimental Medicine, 2000)

How the values were obtained:
Cathepsin Z (Cat Z) = Cathepsin Z (Cat Z) (Mus musculus, UniProt Q9WUU7); assay: competition of […]-JPM565 active-site labeling in transfected […] cell lysate; type: biochemical
Cathepsin F (Cat F) = target: T1, Cathepsin F (Cat F) (Mus musculus, UniProt Q9R013); type: cell-based
T1 sequence (Q9R013 249-462): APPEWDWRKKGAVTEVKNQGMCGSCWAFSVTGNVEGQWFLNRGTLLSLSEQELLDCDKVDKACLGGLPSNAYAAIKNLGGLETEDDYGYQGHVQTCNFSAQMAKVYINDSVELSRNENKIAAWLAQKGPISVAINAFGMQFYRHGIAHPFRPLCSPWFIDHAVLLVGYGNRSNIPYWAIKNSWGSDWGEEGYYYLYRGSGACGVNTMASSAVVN

Sequence of Cathepsin Z (Cat Z) (Q9WUU7 64-306): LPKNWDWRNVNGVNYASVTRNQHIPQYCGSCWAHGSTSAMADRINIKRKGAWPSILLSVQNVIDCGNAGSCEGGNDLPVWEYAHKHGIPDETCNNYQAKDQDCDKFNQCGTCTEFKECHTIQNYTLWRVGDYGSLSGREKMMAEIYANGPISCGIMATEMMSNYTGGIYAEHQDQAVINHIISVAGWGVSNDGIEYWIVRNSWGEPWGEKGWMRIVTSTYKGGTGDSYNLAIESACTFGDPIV

Structure (SMILES): CC(C)C[C@H](NC(=O)[C@H]1O[C@@H]1C(=O)O)C(=O)NCCCCNC(=N)N [E64]
- inhibits at this concentration (Cathepsin Z (Cat Z)): 20 (inhibits at this concentration) μM

Structure (SMILES): CC(C)C[C@H](NC(=O)N1CCOCC1)C(=O)N[C@H](/C=C/S(=O)(=O)c1ccccc1)CCc1ccccc1 [LHVS]
- complete inhibition (Cathepsin F (Cat F)): 1 (complete inhibition) μM
